US20130157858A1, “METHODS AND SYSTEMS USEFUL FOR C[…] WATERMILFOIL” (priority 2011, published 2013)

Tests used:
[1] = test system: hybrid milfoil population; conditions: hybrid milfoil population (B), 6 weeks following applications of various rates, FIG. 2; cited from earlier work
[2] = test system: auxin herbicide sensitive Eurasian milfoil biotype; conditions: Eurasian milfoil biotype (A), 6 weeks following applications of various rates, FIG. 2; cited from earlier work
[3] = test system: tolerant hybrid milfoil lineage from an Upper Midwest US lake; experiment: 14-day laboratory apical tissue assay, fluridone herbicide response (beta-carotene); assay type: in vivo, hybrid (Northern×Eurasian) watermilfoil; conditions: 14-day apical tissue assay, various rates of fluridone, compared with the susceptible reference Eurasian milfoil lineage (EWM), n=4, FIG. 3
Source text: FIG. 3 depicts fluridone herbicide response of a tolerant hybrid milfoil lineage from an Upper Midwest US lake compared to response of a susceptible reference Eurasian milfoil lineage (EWM) in a 14-day laboratory apical tissue assay. […] Error bars are +1 standard deviation (n=4).

O=C(O)COc1ccc(Cl)cc1Cl [2,4-d, 2,4-dichlorophenoxyacetic acid]
response in aboveground biomass (sensitivity/tolerance) [1]: displaying auxin tolerance | response in aboveground biomass (sensitivity/tolerance) [2]: sensitive

O=C(O)COc1nc(Cl)c(Cl)cc1Cl [triclopyr]
response in aboveground biomass (sensitivity/tolerance) [1]: displaying auxin tolerance | response in aboveground biomass (sensitivity/tolerance) [2]: sensitive

fluridone
beta-carotene reduction [3]: less beta-carotene reduction for the tolerant hybrid lineage versus the reference Eurasian lineage
